Key:
[1] = system: antibodies in control sera (pooled serum of 10 healthy LUMC hospital workers; commercial negative donor pooled serum); assay type: binding, human
[2] = system: antibodies in sera of individuals which have been and/or are infected by SARS-CoV (SARS-green, SARS-yellow, 1a, 1b, 2, 6, 37, 62, London); assay type: binding, human

Sequence | recognition by control sera (domains homologous with OC43 spike) [1] | recognition by sera of SARS-CoV infected individuals (domains homologous with OC43 spike) [2]
KPTKRSFIEDLLF [SEQ ID NO:1244] | recognition by control sera derived from individuals which have not been infected by SARS-CoV | recognition by sera derived from individuals which have been and/or are still infected by SARS-CoV
VLYENQKQIANQFNKAISQIQ [SEQ ID NO:1245] | recognition by control sera derived from individuals which have not been infected by SARS-CoV | recognition by sera derived from individuals which have been and/or are still infected by SARS-CoV

Source: US20060110803A1 (Crucell Holland B.V., priority 2003, published 2006)
